Earlier results as cited in patent US20240366601A1, “METHODS FOR TREATING TRAUMATIC BRAIN INJURY” (The Regents of the University of California, priority 2021, published 2024).

Columns and labels:
[1] = FDA-approved doses for cancer treatments; list continues over the following table lines
CDK4 = CDK4 (Homo sapiens, UniProt P11802); conditions: for CDK4; read-out: in vitro IC50 (nM) in cell-free assays
CDK4, sequence (P11802 whole entry): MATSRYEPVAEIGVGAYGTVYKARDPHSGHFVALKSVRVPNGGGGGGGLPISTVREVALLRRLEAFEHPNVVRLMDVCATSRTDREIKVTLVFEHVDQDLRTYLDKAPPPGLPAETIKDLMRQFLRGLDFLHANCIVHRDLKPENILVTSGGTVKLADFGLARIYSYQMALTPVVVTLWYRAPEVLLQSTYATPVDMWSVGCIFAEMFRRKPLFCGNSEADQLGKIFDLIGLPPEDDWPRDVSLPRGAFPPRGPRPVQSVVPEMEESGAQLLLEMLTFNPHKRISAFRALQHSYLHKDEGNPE
CDK4, sequence (P24385 whole entry partner): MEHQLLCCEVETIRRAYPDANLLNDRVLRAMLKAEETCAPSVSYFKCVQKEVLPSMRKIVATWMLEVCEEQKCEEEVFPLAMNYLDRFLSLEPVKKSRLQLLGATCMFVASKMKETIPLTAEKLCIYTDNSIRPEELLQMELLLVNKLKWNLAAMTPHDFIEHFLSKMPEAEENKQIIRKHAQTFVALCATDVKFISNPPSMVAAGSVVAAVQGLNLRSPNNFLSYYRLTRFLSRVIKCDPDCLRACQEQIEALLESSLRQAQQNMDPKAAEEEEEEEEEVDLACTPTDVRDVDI

## CN(C)C(=O)c1cc2cnc(Nc3ccc(N4CCNCC4)cn3)nc2n1C1CCCC1 [ribociclib]
[1]
  Common Side effects at FDA-approved doses (Medline Plus): diarrhea; constipation; stomach pain; headache; hair loss; back pain; itching;

## CCN1CCN(Cc2ccc(Nc3ncc(F)c(-c4cc(F)c5nc(C)n(C(C)C)c5c4)n3)nc2)CC1 [abemaciclib]
[1]
  Common Side effects at FDA-approved doses (Medline Plus): diarrhea, nausea, abdominal pain, infections, tiredness, anemia, leukopenia,

## CN1CCN(c2ccc(Nc3ncc4cc(C#N)c(=O)n(C5CCCC5)c4n3)cc2)CC1 [ON123300]
CDK4
  IC50: 3.9 nM
